Measurements from patent US10174035B2, “6-morpholinyl-2-pyrazolyl-9H-purine derivatives and their use as PI3K inhibitors” (Daiichi Sankyo Company, Limited, priority 2015, dated 2019).
Read-outs that look alike come from different tables or passages of the source.

Legend:
[1] = target: PI3Kγ (Homo sapiens (Human), UniProt P48736); assay: In vitro enzyme assay (Kinase-Glo), selectivity, PI3Kγ; assay type: biochemical; details: enzyme 2.29 μg/mL; ATP 10 μM; PIP2 60 μM; 2 hours
Procedure: The Kinase-Glo luminescent kinase assay kit (from Promega) was used to measure kinase activity. In this assay, amount of ATP remaining in solution following a kinase reaction is measured. […] The reaction mixture was incubated for 2 hours at room temperature. At the end of incubation period the equal volume of Kinase-Glo plus (Promega, V3772), was added per well and the luminescence was measured after incubating for 10 minutes at room temperature in dark. Results were calculated by measuring the luminescence units of test samples to blanks containing no enzyme.
(§1) The compounds of the present invention were tested for their selectivity for PI3Kδ over PI3Kα, PI3Kβ and PI3Kγ following the above assay using specific recombinant enzymes (Proteros, Germany) for each kinase. Assay condition of kinase assay (PI3Kα, PI3Kβ, PI3Kγ and PI3Kδ) was as follows.

[2] = target: PI3Kβ (Homo sapiens (Human), UniProt P42338); assay: In vitro enzyme assay (Kinase-Glo), selectivity, PI3Kβ; assay type: biochemical; details: enzyme 2.29 μg/mL; ATP 10 μM; PIP2 60 μM; 2 hours
Chain of PI3Kβ (P42338 whole entry, species assumed): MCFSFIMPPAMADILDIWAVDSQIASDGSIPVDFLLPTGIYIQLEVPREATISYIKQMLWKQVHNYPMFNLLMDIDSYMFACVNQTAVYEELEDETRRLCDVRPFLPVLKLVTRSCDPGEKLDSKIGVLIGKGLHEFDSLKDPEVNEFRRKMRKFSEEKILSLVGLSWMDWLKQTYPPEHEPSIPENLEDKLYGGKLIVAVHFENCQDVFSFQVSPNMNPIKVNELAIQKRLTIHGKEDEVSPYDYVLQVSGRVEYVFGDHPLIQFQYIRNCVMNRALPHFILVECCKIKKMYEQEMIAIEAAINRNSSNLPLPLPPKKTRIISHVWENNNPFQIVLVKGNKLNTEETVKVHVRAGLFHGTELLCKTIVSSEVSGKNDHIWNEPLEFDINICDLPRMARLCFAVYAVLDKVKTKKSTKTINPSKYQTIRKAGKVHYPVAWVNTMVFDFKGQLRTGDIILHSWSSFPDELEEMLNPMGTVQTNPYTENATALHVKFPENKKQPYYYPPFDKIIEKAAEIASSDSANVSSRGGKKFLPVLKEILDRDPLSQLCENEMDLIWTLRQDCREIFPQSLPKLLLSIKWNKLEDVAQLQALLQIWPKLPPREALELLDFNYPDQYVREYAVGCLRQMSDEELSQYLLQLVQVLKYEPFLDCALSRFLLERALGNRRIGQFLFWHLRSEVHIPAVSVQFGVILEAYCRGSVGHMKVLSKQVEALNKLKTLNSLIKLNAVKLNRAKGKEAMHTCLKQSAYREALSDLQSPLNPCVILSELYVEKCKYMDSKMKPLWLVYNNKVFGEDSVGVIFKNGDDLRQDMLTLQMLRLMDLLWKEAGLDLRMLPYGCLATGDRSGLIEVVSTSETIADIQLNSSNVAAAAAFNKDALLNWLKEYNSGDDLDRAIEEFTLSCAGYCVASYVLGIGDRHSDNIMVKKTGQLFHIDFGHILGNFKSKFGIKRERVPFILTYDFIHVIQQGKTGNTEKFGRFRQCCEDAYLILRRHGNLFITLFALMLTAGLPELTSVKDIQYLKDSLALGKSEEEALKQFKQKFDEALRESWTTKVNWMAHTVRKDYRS
Chain of PI3Kβ (P27986 whole entry partner, species assumed): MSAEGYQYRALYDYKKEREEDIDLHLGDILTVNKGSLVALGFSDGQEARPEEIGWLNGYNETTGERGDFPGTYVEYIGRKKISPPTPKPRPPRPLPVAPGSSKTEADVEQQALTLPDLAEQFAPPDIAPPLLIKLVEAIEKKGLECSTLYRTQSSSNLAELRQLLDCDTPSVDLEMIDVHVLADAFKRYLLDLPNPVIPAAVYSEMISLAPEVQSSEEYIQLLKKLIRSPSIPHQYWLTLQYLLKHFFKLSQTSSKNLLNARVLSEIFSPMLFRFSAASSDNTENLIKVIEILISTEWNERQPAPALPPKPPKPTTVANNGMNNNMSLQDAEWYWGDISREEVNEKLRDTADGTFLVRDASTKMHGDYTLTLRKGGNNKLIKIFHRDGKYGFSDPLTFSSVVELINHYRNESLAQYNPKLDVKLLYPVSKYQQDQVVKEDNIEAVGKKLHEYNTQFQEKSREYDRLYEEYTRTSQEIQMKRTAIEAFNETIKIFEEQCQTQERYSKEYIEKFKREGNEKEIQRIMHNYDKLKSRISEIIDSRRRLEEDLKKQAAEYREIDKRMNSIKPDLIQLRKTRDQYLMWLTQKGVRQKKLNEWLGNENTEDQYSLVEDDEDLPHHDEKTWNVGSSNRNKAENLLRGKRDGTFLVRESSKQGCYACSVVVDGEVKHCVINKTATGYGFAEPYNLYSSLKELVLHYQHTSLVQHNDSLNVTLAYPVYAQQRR
Procedure: (§2) The Kinase-Glo luminescent kinase assay kit (from Promega) was used to measure kinase activity. In this assay, amount of ATP remaining in solution following a kinase reaction is measured. The effect of compounds on PI3Kδ inhibition was carried out by adding 2.29 μg/ml of recombinant PI3K δ enzyme (Proteros, Germany) to reaction mixture containing assay buffer (50 mM HEPES, pH 7.4, 50 mM NaCl, 0.05% CHAPS) supplemented with 10 mM MgCl2, 5 mM DTT, 60 μM Phosphatidyl inositol bisphosphate (PIP2) and 10 μM ATP in the absence or presence of different concentrations of the compounds in a final volume of 15 μl/well, in a 384 well plate. The reaction mixture was incubated for 2 hours at room temperature. At the end of incubation period the equal volume of Kinase-Glo plus (Promega, V3772), was added per well and the luminescence was measured after incubating for 10 minutes at room temperature in dark. Results were calculated by measuring the luminescence units of test samples to blanks containing no enzyme.
as §1, with “follows. Enzyme: 2.29 μg/mL; ATP: 10 μM; PIP2 substrate: 60 μM and Reaction Time: 2 hours.” for “follows.”

[3] = target: recombinant PI3K δ enzyme (Homo sapiens (Human), UniProt O00329); assay: In vitro enzyme assay (Kinase-Glo luminescent kinase assay), PI3Kδ; assay type: biochemical
Chain of recombinant PI3K δ enzyme (O00329 whole entry, species assumed, canonical isoform): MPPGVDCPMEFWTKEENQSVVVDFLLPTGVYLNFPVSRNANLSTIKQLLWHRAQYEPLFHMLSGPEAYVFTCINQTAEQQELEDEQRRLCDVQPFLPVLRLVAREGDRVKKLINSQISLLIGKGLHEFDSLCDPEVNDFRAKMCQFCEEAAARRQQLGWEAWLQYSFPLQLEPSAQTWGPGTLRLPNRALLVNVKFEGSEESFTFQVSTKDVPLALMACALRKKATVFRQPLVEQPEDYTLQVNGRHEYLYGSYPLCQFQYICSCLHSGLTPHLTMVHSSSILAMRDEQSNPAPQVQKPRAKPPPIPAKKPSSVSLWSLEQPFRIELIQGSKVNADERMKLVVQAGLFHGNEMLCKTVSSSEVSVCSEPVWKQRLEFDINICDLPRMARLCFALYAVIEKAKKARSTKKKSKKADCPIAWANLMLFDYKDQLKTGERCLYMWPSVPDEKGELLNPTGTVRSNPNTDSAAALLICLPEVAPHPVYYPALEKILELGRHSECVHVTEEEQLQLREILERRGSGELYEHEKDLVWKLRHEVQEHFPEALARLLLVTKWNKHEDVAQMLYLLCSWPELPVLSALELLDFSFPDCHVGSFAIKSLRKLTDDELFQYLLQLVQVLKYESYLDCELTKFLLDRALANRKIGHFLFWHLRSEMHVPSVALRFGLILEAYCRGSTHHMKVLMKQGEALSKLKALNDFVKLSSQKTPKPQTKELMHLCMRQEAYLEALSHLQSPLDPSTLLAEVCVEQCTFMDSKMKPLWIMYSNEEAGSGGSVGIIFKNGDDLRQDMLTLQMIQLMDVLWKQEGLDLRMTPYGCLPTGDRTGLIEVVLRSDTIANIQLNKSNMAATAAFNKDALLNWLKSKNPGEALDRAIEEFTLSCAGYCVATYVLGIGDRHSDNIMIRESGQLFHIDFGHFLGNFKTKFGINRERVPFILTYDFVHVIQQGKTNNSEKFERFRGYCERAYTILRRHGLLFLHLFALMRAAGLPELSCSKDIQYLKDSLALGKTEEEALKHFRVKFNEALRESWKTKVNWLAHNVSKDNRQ
Chain of recombinant PI3K δ enzyme (P27986 whole entry partner, species assumed, canonical isoform): as the sequence (P27986 whole entry partner, species assumed) above
In short: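 Each recombinant human PI3K isoform at 2.29 μg/mL with 60 μM PIP2 and 10 μM ATP in HEPES pH 7.4, NaCl, CHAPS, MgCl2, DTT, 2 hours at room temperature. Remaining ATP read by Kinase-Glo luminescence relative to no-enzyme blanks.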

[4] = tested on: IFN-γ release in mouse splenocytes; assay: Phytohaemagglutinin (PHA)-induced interferon (IFN)-gamma release in mouse splenocytes; design: species or system C57BL/6 mouse; details: Splenocyte, PHA (10 μg/ml) for 48 hours, IFN-γ by ELISA, read-out: Cell Based IC50
Procedure: Effect of compounds on mitogen-induced IFN-γ release in mouse splenocytes was used to evaluate their potency in cell-based assay system [Blood (2010) 115: 2203-2213; Current Protocols in Immunology (2004) 3.12.1-3.12.20].
Mouse splenocytes were obtained from the spleen of a C57BL/6 mouse and plated at a density of 0.25 million cells/well in a 96 well tissue culture plate. The effect of the compounds to inhibit IFN-γ release was evaluated by treating the splenocytes with various concentrations of the test compounds followed by stimulation with PHA (10 μg/ml) for 48 hours. The IFN-γ release in the cell culture supernatant was quantified by ELISA as per the manufacturer's protocol (BD Biosciences, #555138).

[5] = target: PI3Kα (Homo sapiens (Human), UniProt P42336); assay: In vitro enzyme assay (Kinase-Glo), selectivity, PI3Kα; assay type: biochemical; details: enzyme 2.29 μg/mL; ATP 10 μM; PIP2 60 μM; 2 hours
Chain of PI3Kα (P42336 whole entry, species assumed): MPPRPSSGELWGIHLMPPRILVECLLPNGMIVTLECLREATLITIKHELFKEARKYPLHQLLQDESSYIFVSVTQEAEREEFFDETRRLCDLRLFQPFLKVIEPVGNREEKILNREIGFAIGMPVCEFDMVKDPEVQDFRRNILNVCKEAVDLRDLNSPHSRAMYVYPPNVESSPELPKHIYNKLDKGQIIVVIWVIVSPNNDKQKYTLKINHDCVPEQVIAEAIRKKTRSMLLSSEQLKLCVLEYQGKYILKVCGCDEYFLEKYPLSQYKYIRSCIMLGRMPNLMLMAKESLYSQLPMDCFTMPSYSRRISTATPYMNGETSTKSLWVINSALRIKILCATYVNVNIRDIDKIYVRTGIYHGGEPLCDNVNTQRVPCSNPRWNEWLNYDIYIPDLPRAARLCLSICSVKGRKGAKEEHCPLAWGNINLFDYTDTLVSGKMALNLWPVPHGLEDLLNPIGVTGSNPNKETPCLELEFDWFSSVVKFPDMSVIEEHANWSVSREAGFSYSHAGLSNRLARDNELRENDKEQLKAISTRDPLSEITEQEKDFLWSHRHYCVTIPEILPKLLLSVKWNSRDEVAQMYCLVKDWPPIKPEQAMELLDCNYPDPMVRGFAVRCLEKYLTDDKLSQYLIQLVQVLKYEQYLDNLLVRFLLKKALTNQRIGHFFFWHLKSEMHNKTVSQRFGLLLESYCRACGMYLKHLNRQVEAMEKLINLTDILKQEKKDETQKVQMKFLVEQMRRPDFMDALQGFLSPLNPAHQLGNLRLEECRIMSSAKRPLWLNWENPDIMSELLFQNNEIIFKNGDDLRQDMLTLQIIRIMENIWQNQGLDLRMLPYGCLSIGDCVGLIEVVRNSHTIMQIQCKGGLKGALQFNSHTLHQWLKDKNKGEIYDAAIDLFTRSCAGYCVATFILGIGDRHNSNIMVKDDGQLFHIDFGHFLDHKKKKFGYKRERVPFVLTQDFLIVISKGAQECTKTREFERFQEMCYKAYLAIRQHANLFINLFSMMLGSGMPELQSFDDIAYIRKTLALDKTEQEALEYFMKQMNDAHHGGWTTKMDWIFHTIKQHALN
Chain of PI3Kα (P27986 whole entry partner, species assumed): as the sequence (P27986 whole entry partner, species assumed) above
Procedure: as §2
as §1, with “follows. Enzyme: 2.29 μg/mL; ATP: 10 μM; PIP2 substrate: 60 μM and Reaction Time: 2 hours.” for “follows.”

[6] = enzyme 2.29 μg/mL, ATP 10 μM, PIP2 60 μM, 2 hours

Chain of PI3Kγ (P48736 whole entry, species assumed): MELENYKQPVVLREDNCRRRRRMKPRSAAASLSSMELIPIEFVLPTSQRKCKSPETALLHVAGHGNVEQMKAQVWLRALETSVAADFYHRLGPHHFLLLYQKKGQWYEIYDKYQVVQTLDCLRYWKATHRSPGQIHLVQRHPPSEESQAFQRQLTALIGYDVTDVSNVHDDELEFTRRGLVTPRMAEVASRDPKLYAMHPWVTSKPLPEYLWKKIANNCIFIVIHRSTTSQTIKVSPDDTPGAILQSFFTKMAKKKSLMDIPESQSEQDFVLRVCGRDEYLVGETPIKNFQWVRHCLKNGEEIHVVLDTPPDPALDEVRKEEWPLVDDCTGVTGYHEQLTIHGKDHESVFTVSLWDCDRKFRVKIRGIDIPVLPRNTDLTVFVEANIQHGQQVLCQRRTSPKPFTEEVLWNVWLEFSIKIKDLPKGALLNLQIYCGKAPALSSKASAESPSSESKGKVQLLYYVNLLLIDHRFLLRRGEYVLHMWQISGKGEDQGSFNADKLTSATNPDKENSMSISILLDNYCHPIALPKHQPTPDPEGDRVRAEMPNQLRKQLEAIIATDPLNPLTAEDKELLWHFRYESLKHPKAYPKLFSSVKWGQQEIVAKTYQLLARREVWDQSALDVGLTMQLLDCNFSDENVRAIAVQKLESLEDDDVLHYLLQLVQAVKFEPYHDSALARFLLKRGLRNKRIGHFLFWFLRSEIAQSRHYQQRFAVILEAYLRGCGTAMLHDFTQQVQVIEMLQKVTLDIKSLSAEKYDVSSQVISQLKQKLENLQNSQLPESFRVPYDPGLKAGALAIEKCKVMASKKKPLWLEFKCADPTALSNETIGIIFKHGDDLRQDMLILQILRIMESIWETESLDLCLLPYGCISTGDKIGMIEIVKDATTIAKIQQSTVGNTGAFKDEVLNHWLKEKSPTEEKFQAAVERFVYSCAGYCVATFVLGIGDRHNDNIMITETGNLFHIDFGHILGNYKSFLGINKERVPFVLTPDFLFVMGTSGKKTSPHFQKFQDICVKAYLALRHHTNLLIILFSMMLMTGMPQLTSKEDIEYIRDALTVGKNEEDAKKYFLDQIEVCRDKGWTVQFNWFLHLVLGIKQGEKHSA

Row | Structure (SMILES) | IC50 [1] [nM] | IC50 [2] [nM] | IC50 [3] [nM] | IC50 [3, 6] [nM] | IC50 [4] [nM] | IC50 [5] [nM]
1 | Cc1nn(C)cc1-c1nc(N2CCOCC2)c2nc(C(=O)N3CCN(C(C)(C)C(N)=O)CC3)[nH]c2n1 [compound 8, 2-(4-{[2-(1,3-Dimethyl-1H-pyrazol-4-yl)-6-(morpholin-4-yl)-9H-purin-8-yl]carbonyl}piperazin-1-yl)-2-methylpropanamide] | 6540 | > 1000 | 10 | 10 | 422 | 6480
2 | Cn1cc(-c2nc(N3CCOCC3)c3nc(C(=O)N4CCC(C(C)(C)O)CC4)[nH]c3n2)cn1 [compound 14, [4-(2-Hydroxypropan-2-yl)piperidin-1-yl][2-(1-methyl-1H-pyrazol-4-yl)-6-(morpholin-4-yl)-9H-purin-8-yl]methanone] | 584 | > 10000 | 16 | 16 | 810 | > 1000
3 | O=C(c1nc2c(N3CCOCC3)nc(-c3c[nH]nc3C(F)(F)F)nc2[nH]1)N1CCC(N2CCOCC2)CC1 [compound 19, [4-(Morpholin-4-yl)piperidin-1-yl]{6-(morpholin-4-yl)-2-[3-(trifluoromethyl)-1H-pyrazol-4-yl]-9H-purin-8-yl}methanone] | 5660 | > 10000 | 13 | 13 | 192 | 4050
4 | Cc1nn(C)cc1-c1nc(N2CCOCC2)c2nc(C(=O)N3CCC(N4CCOCC4)CC3)[nH]c2n1 [compound 41, [2-(1,3-Dimethyl-1H-pyrazol-4-yl)-6-(morpholin-4-yl)-9H-purin-8-yl][4-(morpholin-4-yl)piperidin-1-yl]methanone] | 2100 | > 10000 | 14 | 14 | 225 | 8820
5 | CN1CCCC1CCNC(=O)c1nc2c(N3CCOCC3)nc(-c3cnn(C)c3)nc2[nH]1 (centres unmarked) [compound 64, 2-(1-Methyl-1H-pyrazol-4-yl)-N-{2-[1-methylpyrrolidin-2-yl]ethyl}-6-(morpholin-4-yl)-9H-purine-8-carboxamide] | 6130 | > 10000 | 17 | 17 | 112 | 984
6 | Cn1cc(-c2nc(N3CCOCC3)c3nc(C(=O)NCCCN4CCOCC4)n(C)c3n2)cn1 [compound 67, 9-Methyl-2-(1-methyl-1H-pyrazol-4-yl)-6-(morpholin-4-yl)-N-[3-(morpholin-4-yl)propyl]-9H-purine-8-carboxamide] | > 1000 | > 10000 | 11 | 11 | 27 | > 1000
7 | Cn1cc(-c2nc(N3CCOCC3)c3nc(C(=O)NCCCN4CCCC4=O)[nH]c3n2)cn1 [compound 68, 2-(1-Methyl-1H-pyrazol-4-yl)-6-(morpholin-4-yl)-N-[3-(2-oxopyrrolidin-1-yl)propyl]-9H-purine-8-carboxamide] | > 1000 | > 10000 | 17 | 17 | 296 | > 1000
8 | O=C(c1nc2c(N3CCOCC3)nc(-c3cn[nH]c3)nc2[nH]1)N1CCC2(CC1)COC2 [compound 72, [6-(Morpholin-4-yl)-2-(1H-pyrazol-4-yl)-9H-purin-8-yl](2-oxa-7-azaspiro[3.5]non-7-yl)methanone] | > 1000 | > 10000 | 18 | 18 | 333 | > 1000
9 | C[C@@H]1CN(CCCNC(=O)c2nc3c(N4CCOCC4)nc(-c4cnn(C)c4)nc3[nH]2)C[C@H](C)O1 [compound 75, N-{3-[cis-2,6-dimethylmorpholin-4-yl]propyl}-2-(1-methyl-1H-pyrazol-4-yl)-6-(morpholin-4-yl)-9H-purine-8-carboxamide] | > 1000 | > 10000 | 18 | – | 84 | > 1000
